Source: PMC12549899 (Nature Communications, 2025)
Several values for one entry are separate records, joined by “and”; a condition that tells them apart may be missing. Identical values can stand only once.

Target: T1, DrOTOP1 G130W/A274W (Danio rerio, UniProt Q7ZWK8, A274W/G130W)
T1 construct: A previously generated codon-optimized full-length DrOTOP1[8]; (UniProt: Q7ZWK8) construct; expressed in transfected cells; host or cells: HEK-293 (CRL-1573, ATCC)
T1 sequence (Q7ZWK8 1-586 G130W/A274W): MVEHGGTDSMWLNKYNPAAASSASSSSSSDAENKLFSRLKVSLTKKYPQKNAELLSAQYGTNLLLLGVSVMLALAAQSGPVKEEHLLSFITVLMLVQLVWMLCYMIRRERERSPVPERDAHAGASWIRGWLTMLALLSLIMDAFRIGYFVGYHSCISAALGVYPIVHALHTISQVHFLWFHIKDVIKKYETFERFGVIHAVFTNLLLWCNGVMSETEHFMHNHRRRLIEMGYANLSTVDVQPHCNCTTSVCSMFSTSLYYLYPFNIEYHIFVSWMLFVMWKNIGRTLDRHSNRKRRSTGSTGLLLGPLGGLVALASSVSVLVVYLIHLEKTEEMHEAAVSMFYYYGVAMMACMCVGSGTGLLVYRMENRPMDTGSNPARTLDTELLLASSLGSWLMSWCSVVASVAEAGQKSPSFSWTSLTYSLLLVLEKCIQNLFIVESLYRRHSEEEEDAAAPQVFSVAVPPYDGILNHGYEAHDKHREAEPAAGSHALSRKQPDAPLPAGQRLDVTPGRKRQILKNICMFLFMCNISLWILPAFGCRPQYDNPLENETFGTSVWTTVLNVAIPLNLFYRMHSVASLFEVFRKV
Experiment: Whole-cell patch-clamp, inhibition of acid-evoked currents, DrOTOP1 G130W/A274W
Format: cell-based, zebrafish (Danio rerio)
Procedure: Given our limited success in identifying mutations of the central site that disrupt antagonism by C2.2, we tested whether mutations of the central site in a background of G130W (the most impactful outer site mutation) might unmask contributions of this site. Thus, we generated and tested double mutants of G130W with E384A, A274W, and A388W. […] We also measured the dose-dependence of inhibition by C2.2 for both G130W/A388W and G130W/E384A (Fig. 5I, J). […] G130W was tested in parallel to confirm that 100 and 300 μM C2.2 produced dose-dependent inhibition.
HEK-293 cells (CRL-1573, ATCC) were cultured in DMEM (Thermofisher 11995073) containing 10% fetal bovine serum (Life Technology 16000044) and Penicillin-Streptomycin (100 I.U./mL) and (100 µg/mL), respectively. Cells were transfected with WT DrOTOP1 or mutant DrOTOP1 channels in 35 mm petri dishes, with ~ 500 ng DNA and 2 μL TransIT-LT1 transfection reagent (Mirus Bio Corporation, Cat # MIR2300) following the manufacturer’s protocol. […]
Whole-cell patch-clamp recording was performed as previously described[6],[22],[25]. Recordings were made with an Axopatch 200B amplifier, digitized with a Digidata 1322a 16-bit data acquisition system, acquired with pClamp 8.2 and analyzed with Clampfit 10 (Molecular Devices). […]
All data are presented as mean ± SEM unless otherwise noted, and each data point represents an independent replicant. Inhibition of compounds was quantified as ((I2peak-I1)/(I2peak))*100, where I1 is the current immediately before wash-off and I2peak is the maximum recovered current (Supplementary Fig. 2). Hill coefficients were determined by the following equation: Y = Bmax*X^h/(Kd^h + X^h). Absolute IC50 was determined by the following equation: Fifty = (Top + Baseline)/2 Y = Bottom + (Top-Bottom)/(1 + ((Top-Bottom)/(Fifty-Bottom) − 1)*(AbsoluteIC50/X)^HillSlope). pH50 curves (Fig. 6G inset) were determined using the following equation: Y = Bottom + (Top-Bottom)/(1 + (EC/X)^HillSlope) where EC = EC50 control. […]

| SMILES | inhibition at 10 µM (10 µM, single cells or mean) | Inhibition of currents (100 µM, single cells) | inhibition at 100 µM (100 µM, single cells) |
| --- | --- | --- | --- |
| C=C(C)COc1ccccc1NC(=O)c1nc[nH]c1C [C2.2] | 8.49% | – | – |
| O=C(/C(=N\O)c1ccccc1)c1ccccc1 [C11, benzil monoxime] | – | 67.5079% and 70.0684% and 78.866% and 74.4022% | 67.5% |
